Reference: US20210177814A1, “USE OF GUANABENZ OR DERIVATES THEREOF FOR THE TREATMENT OF TYPE I IFN-DEPENDENT PATHOLOGIES” (INSERM (Institut National de la Santé et de la Recherche …, priority 2018, published 2021)

Biological target: T1, TLR9 (Homo sapiens, UniProt Q9NR96)
T1 sequence (Q9NR96 26-1032): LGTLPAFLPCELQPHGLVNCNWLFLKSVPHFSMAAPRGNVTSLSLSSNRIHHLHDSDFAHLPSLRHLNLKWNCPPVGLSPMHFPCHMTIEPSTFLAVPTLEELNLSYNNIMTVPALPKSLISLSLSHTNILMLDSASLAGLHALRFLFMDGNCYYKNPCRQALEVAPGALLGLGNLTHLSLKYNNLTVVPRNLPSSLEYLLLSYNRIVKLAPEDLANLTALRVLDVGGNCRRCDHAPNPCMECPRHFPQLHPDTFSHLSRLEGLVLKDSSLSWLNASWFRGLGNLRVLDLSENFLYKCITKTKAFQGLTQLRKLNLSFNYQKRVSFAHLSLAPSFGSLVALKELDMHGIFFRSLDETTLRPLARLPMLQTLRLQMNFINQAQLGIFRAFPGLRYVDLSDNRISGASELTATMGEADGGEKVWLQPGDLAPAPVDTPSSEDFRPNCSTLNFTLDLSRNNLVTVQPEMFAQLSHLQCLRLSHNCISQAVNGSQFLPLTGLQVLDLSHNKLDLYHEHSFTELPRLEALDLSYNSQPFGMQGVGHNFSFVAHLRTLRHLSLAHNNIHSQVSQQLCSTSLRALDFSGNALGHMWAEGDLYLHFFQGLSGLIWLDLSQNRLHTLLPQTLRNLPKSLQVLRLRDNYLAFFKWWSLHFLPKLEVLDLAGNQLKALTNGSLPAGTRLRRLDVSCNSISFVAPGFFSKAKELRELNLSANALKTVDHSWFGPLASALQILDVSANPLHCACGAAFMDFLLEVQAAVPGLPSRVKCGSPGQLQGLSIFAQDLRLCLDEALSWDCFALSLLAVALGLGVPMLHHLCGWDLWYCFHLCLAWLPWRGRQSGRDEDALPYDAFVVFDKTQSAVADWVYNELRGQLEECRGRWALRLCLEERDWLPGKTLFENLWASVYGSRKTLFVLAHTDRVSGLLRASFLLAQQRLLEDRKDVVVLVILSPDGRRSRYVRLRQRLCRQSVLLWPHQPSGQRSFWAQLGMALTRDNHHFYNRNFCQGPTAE
Test: HEK-Blue hTLR9 SEAP reporter assay
Type: cell-based
Parameters: expressed in transfected cells; host or cells: HEK-Blue (HEK 293) hTLR9 reporter cells
Conditions: 2.5 μM ODN 2006, GBZ 50 μM
Protocol: FIG. 1: Guanabenz inhibits TLR3 and TLR9 activation in mouse Flt3-L DCs and human blood pDCs. A) Sorted bone marrow derived Flt3L-DCs were activated for 6 h with 10 μg/mL poly I:C LMW (TLR3 in DC1) or 1 μM ODN 1585 (TLR9 in pDCs). GBZ was added at 50 μM and inhibited IFN-β and Interleukin-6 (IL-6) production in activated cells. B) hTLR4, hTLR3, hTLR9 and hTLR7 expressed in the reporter HEK-Blue™ cells are inhibited by GBZ. TLR-expressing HEK-Blue™ cells were respectively activated with 100 ng/mL LPS, 10 μg/mL poly I:C LMW, 2.5 μM ODN 2006 or 5 μg/mL imiquimod, respectively. GBZ was added at 50 μM. TLR activity was measured indirectly through SEAP activity as absorbance at 405 nm. […] Protein concentration of IFN-α and TNF-α secreted were measured at the indicated time points or at 16 h. […]
Given the efficiency of GBZ on mouse TLR3 and TLR9, we turned to human TLRs, in order to extend the relevance of our observations. GBZ-mediated inhibition was first evaluated on NF-kB signaling by monitoring secreted alkaline phosphatase (SEAP) reporter levels in HEK-293 cells expressing TLR3, TLR4, TLR7, TLR9 (FIG. 1B). […] The functionality of the TLR9 transduction pathway was next evaluated by using phospho-flow detection of 40S ribosomal protein S6 (rpS6) phosphorylation, a well characterized early signaling event down-stream of TLR activation by LPS or viruses.

Compound: NC(N)=N/N=C/c1c(Cl)cccc1Cl [GBZ, 2-(2,6-dichlorobenzylidene)-hydrazinecarboximidamide]
- TLR9-dependent activation of the SEAP reporter: inhibited
